Laboratory results from article PMC9550238, “Novel TRKB agonists activate TRKB and downstream ERK and AKT signaling to protect Aβ-GFP SH-SY5Y cells against Aβ toxicity” (Aging (Albany NY), 2022).
Read-outs that look alike come from different tables or passages of the source.

Columns and labels:
in vitro = in vitro ADME
Experimental: The permeability of LMDS-1 and -2 was determined by a PAMPA-BBB assay. Firstly, 300 μl of LMDS-1 or -2 (1 μM) solution were added to the donor well (Millipore). Bupropion (a high permeability marker), piroxicam (a low permeability marker), and lucifer yellow (an integrity marker) (Sigma-Aldrich) were used as quality control (QC) compounds for comparison. The sandwich with aqueous donor on the bottom, artificial lipid membrane (PVDF filter coated with porcine polar brain lipid) in the middle, and aqueous acceptor (5% DMSO in PBS) on the top was assembled as stated. Each compound was tested in triplicate. After incubation for 18 h at the ambient temperature, the PAMPA sandwich plate was separated. The concentrations of test and QC compounds in the donor and acceptor wells were measured as stated, and the effective permeability coefficient (Pe) was computed.

Aβ42 peptide = target: T1, Aβ42 peptide (Homo sapiens, UniProt P05067); test: Thioflavin T Aβ aggregation inhibition assay; assay type: biochemical; settings: Aβ42, compounds 5–20 μM
T1 construct: assessed by using Aβ42 peptide (AnaSpec, Fremont, CA, USA); purchased AnaSpec
T1 sequence (P05067 672-713 limits assumed): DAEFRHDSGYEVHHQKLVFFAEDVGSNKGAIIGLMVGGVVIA
Experimental: (§1) Thioflavin T is widely used to visualize and quantify the presence of misfolded amyloid protein aggregates in vitro [59]. […] In addition, DPPH radical (Sigma-Aldrich) was used to assay the free radical scavenging capacity of kaempferol, LM-031 and analogs (10–160 μM) as stated.

[1] = DPPH free radical scavenging assay; assay type: biochemical; settings: compounds 10–160 μM
Experimental: as §1

Aβ-GFP SH-SY5Y cells [2] = test: Aβ folding reporter GFP fluorescence; assay type: cell-based, Human; settings: for intensity of GFP fluorescence: untreated cells 100%; for EC50: Homo sapiens, 144 h, Aβ-GFP SH-SY5Y cells, compounds 1.2–5 μM, Dox 6 days, read-out: Aβ aggregation inhibition EC50 (GFP fluorescence)
Experimental: Human neuroblastoma SH-SY5Y-derived Aβ-GFP cells were maintained as stated. The recombinant Aβ-GFP protein has a 12 amino acid-containing linker between the fused Aβ and GFP. Doxycycline (5 μg/ml; Sigma-Aldrich) was used to induce Aβ-GFP expression.
Neuronal differentiation of Aβ-GFP SH-SY5Y cells was induced by retinoic acid (10 μM; Sigma-Aldrich). Cells on 96-well plate (2.5 × 10^4/well) were seeded on day 1, pre-treated with test compounds (1.2–5 μM) plus induced Aβ-GFP expression (5 μg/ml doxycycline) on day 2, and stained with Hoechst 33342 (0.1 μg/ml; Sigma-Aldrich) on day 8 as stated. Cell images were then captured at 482 nm excitation/536 nm emission wavelengths (ImageXpress Micro Confocal high-content system) and analyzed (MetaXpress image acquisition and analysis software) (Molecular Devices, Sunnyvale, CA, USA). In addition, ROS was quantified on day 8 following CellROX Deep Red stain (5 μM; Molecular Probes, Waltham, MA, USA) using the high-content system with excitation/emission wavelengths of 644/665 nm.

Aβ-GFP SH-SY5Y cells [3] = test: Neurite outgrowth analysis; assay type: cell-based, Human; settings: 5 μM; induced untreated 3.0, uninduced 3.9
Experimental: (§2) As stated, Aβ-GFP SH-SY5Y cells were seeded (6 × 10^4/24-well) with retinoic acid addition on day 1, treated with tested compounds (5 μM) plus induced Aβ-GFP expression (5 μg/ml doxycycline) on day 2, and stained with TUBB3 (tubulin beta 3 class III) primary antibody (1:1000; Covance #MMS-435P, Princeton, NJ, USA), goat anti-rabbit Alexa Fluor® 555 secondary antibody (1:1000; Thermo Fisher Scientific #A27039), and DAPI (4′-6-diamidino-2-phenylindole, 0.1 μg/ml; Sigma-Aldrich) on day 8 [60]. Neuronal pictures were taken using the high-content system and analyzed for neurite length (μm), process (number of neurites protruding from neuronal cell body) and branch (number of neurites extending from process) (MetaXpress neurite outgrowth application module; Molecular Devices). In each of three independent experiments, roughly 6000 cells from each sample were examined.

Aβ-GFP SH-SY5Y cells [4] = test: TRKB RNA interference, neurite outgrowth; assay type: cell-based, Human; settings: 5 μM
Experimental: as §2
To knock down TRKB expression in Aβ-GFP SH-SY5Y cells, lentiviral short hairpin RNA (shRNA) targeting TRKB and control (scrambled) were used. Cells were plated in the presence of retinoic acid (5 × 10^5/6-well for protein analysis or 6 × 10^4/24-well for neurite outgrowth analysis) on day 1, infected with lentivirus on day 2, pretreated with test compound (5 μM) plus inducing Aβ-GFP expression on day 3, and collected for neurite outgrowth or TRKB protein analysis on day 9 as stated.

[5] = design: method as in PMID 32496635; settings: cited from earlier work

Papp at 18 h, 1 μM (in vitro; PAMPA) [×10⁻⁶ cm/s]	EC50 (Aβ42 peptide) [µM]	EC50 [1] [µM]	EC50 (Aβ-GFP SH-SY5Y cells [2]) [µM]	Compound	also measured
				lucifer yellow [reference compound]	% transport (in vitro; PAMPA): 0.00 (% Transport)
17.1 ± 1.09				CC(NC(C)(C)C)C(=O)c1cccc(Cl)c1 (stereo not shown) [Bupropion, bupropion, reference compound]	
	9	104	5.9	O=C(c1ccccc1)c1cc2c(O)cccc2oc1=O [LM-031, 3-benzoyl-5-hydroxychromen-2-one]	intensity of GFP fluorescence (Aβ-GFP SH-SY5Y cells [2]; 1.2–5 μM): 111–149%; neurite process (Aβ-GFP SH-SY5Y cells [3]): 3.7–3.8; neurite process (Aβ-GFP SH-SY5Y cells [4]; scrambled shRNA, induced untreated 2.6): 3.8; neurite process (Aβ-GFP SH-SY5Y cells [4]; shRNA targeting TRKB): 2.5; Measured Pe ([5]; PAMPA-BBB): 4.80 ± 0.12 10^−6 cm/s; PAMPA-BBB classification ([5]; from Pe of ref 34): BBB^+ (high)
		28		O=c1c(O)c(-c2ccc(O)cc2)oc2cc(O)cc(O)c12 [Kaempferol, kaempferol, reference compound]	
1.65 ± 0.17				CN1C(C(=O)Nc2ccccn2)=C(O)c2ccccc2S1(=O)=O [Piroxicam, piroxicam, reference compound]	
11.8 ± 4.11	14	167	11	COc1ccc2cc(C(=O)c3ccccc3)c(=O)oc2c1 [LMDS-3]	intensity of GFP fluorescence (Aβ-GFP SH-SY5Y cells [2]; 2.5–5 μM): 111–149%; PAMPA-BBB classification (in vitro): BBB^+ (high)
